Assay [1] deals with AII-induced contractions of isolated rabbit aorta. The assay is described as follows: Test B: antagonism of AII-induced contractions of isolated aorta. Format: cell-based. The settings on record: Oryctolagus cuniculus, 37°C, average, read-out: average pA₂ (converted). As for the experimental part: In general, compounds of formula VI as defined above show significant inhibition in Test A at a concentration of 50 micromolar or much less. Test B: This in vitro test involves the measurement of the antagonistic effects of the test compound against AII-induced contractions of isolated rabbit aorta, maintained in a physiological salt solution at 37°C. In order to ensure that the effect of the compound is specific to antagonism of AII, the effect of the test compound on noradrenaline-induced contractions may also be determined in the same preparation.

For assay [2], the system named is angiotensin II-induced pressor responses. The assay is described as follows: Test C: antagonism of angiotensin II-induced pressor responses in vivo. Particulars: Rattus norvegicus, iv; i.v. administration; rats; read-out: ED₅₀. As to the method:
In general, compounds of formula VI as defined above show significant inhibition in Test B at a final concentration of 50 micromolar or much less. Test C: This in vivo test involves using terminally-anaesthetised or conscious rats in which an arterial catheter has been implanted under anaesthesia for the measurement of changes in blood pressure. The AII antagonistic effects of the test compound following oral or parenteral administration, are assessed against angiotensin II-induced pressor responses. To ensure that the effect is specific, the effect of the test compound on vasopressin-induced pressor responses may also be determined in the same preparation.

These results are taken from EP0470794A1, “Process for the preparation of nitriles” (ZENECA LIMITED, priority 1990, dated 1992).

As to `Cc1cc(OCc2ccc(-c3ccccc3-c3nnn[nH]3)cc2)c2ccccc2n1.Cl` [2-methyl-4-[(2′-(1H-tetrazol-5-yl)biphenyl-4-yl)methoxy]quinoline hydrochloride], the Kb in assay [1] is 1.12 nM. The ED50 in assay [2] was 0.5 mg/kg.
